Reference: patent US9695155B2, “Herbicidal substituted pyrimidinyloxy benzene compounds” (E. I. DU PONT DE NEMOURS AND COMPANY, priority 2013, dated 2017)

Assays:
barnyardgrass [1] = experiment: Test B flooded paddy test; format: in vivo, Echinochloa crus-galli; conditions: Echinochloa crus-galli; Flood, 250 g ai/ha; 0 to 100 scale where 0 is no effect and 100 is complete control; read-out: Plant response rating, Barnyardgrass
In short: (§1)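 Flooded to 3 cm at the 2-leaf stage, pots received compound through the paddy water and were kept at that depth under greenhouse conditions. After 13–15 days, effect was rated by eye relative to controls, 0 = none and 100 = complete control.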

pigweed [2] = experiment: Test A postemergence; format: in vivo, Amaranthus retroflexus; conditions: Amaranthus retroflexus, post-emergence
In short: (§2)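 Visual injury scored 0–100 (100 = complete control) against untreated controls about 10 days after treatment in a greenhouse. Test chemicals, formulated with surfactant in non-phytotoxic solvent, were sprayed on soil preemergence or on 2-10 cm, one- to two-leaf plants postemergence.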

wheat, winter = experiment: Test C preemergence; format: in vivo, Triticum aestivum; conditions: Triticum aestivum, pre-emergence
In short: (§3)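 Whole-plant greenhouse test with surfactant-containing solvent formulation, applied preemergence to sown loam–sand pots or postemergence to 2–18 cm plants. Scored by eye 13 to 15 days on, 0–100 scale.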

large (Lg) crabgrass = experiment: Test C postemergence; format: in vivo, Digitaria sanguinalis; conditions: Digitaria sanguinalis, post-emergence
In short: as §3

ragweed = experiment: Test C postemergence; format: in vivo, Ambrosia elatior; conditions: Ambrosia artemisiifolia, post-emergence
In short: as §3

morningglory [3] = experiment: Test C preemergence; format: in vivo, Ipomoea coccinea; conditions: Ipomoea, pre-emergence
In short: as §3

barnyardgrass [4] = experiment: Test C preemergence; format: in vivo, Echinochloa crus-galli; conditions: Echinochloa crus-galli, pre-emergence
In short: as §3

waterhemp = experiment: Test C preemergence; format: in vivo, Amaranthus rudis; conditions: Amaranthus tuberculatus, pre-emergence
In short: as §3

pigweed [5] = experiment: Test A preemergence; format: in vivo, Amaranthus retroflexus; conditions: Amaranthus retroflexus, pre-emergence
In short: as §2

barnyardgrass [6] = experiment: Test A postemergence; format: in vivo, Echinochloa crus-galli; conditions: Echinochloa crus-galli, post-emergence, 240 h
In short: as §2

velvetleaf = experiment: Test A postemergence; format: in vivo, Abutilon theophrasti; conditions: Abutilon theophrasti, post-emergence, 240 h
In short: as §2

rice = experiment: Test B flooded paddy test; format: in vivo, Oryza sativa; conditions: Oryza sativa; Flood, 250 g ai/ha; 0 to 100 scale where 0 is no effect and 100 is complete control; read-out: Plant response rating, Rice
In short: as §1

blackgrass = experiment: Test C postemergence; format: in vivo, Alopecurus myosuroides; conditions: Alopecurus myosuroides, post-emergence
In short: as §3

soybean = experiment: Test C preemergence; format: in vivo, Glycine max; conditions: Glycine max, pre-emergence
In short: as §3

morningglory [7] = experiment: Test A preemergence; format: in vivo, Ipomoea spp.
In short: as §2

[8] = 125 g ai/ha, 0 to 100 scale where 0 is no effect and 100 is complete control, read-out: Plant response rating, Pigweed

N#Cc1cccc(Oc2ncc(Cl)cn2)c1-n1cc(C(F)(F)F)cn1 [Compound 58, 3-[(5-chloro-2-pyrimidinyl)oxy]-2-[4-(trifluoromethyl)-1H-pyrazol-1-yl]benzonitrile]
pest or weed control at 250 g/ha (barnyardgrass [1]): 80%
pest or weed control at 125 g/ha (pigweed [2]; [8]): 100%
pest or weed control at 500 g/ha (pigweed [2]; 240 h, 500 g ai/ha, 0 to 100 scale, 0 no effect, 100 complete control, read-out: Plant response rating Pigweed): 100%
plant injury at 62 g/ha (wheat, winter; 62 g ai/ha, preemergence, scale 0 (no effect) to 100 (complete control), read-out: Wheat plant response rating): 80%
plant injury at 125 g/ha (wheat, winter; 125 g ai/ha, preemergence, scale 0 (no effect) to 100 (complete control), read-out: Wheat plant response rating): 80%
plant injury at 250 g/ha (wheat, winter; 250 g ai/ha, preemergence, scale 0 (no effect) to 100 (complete control), read-out: Wheat plant response rating): 90%
plant injury at 31 g/ha (wheat, winter; Preemergence, 31 g ai/ha, scale 0 to 100, 0 no effect, 100 complete control, read-out: Plant response rating, Wheat): 45%
pest or weed control at 125 g/ha (large (Lg) crabgrass; 125 g ai/ha, postemergence, read-out: Plant response rating (0 to 100), Crabgrass, Large): 50%
pest or weed control at 250 g/ha (large (Lg) crabgrass; 250 g ai/ha, postemergence, read-out: Plant response rating (0 to 100), Crabgrass, Large): 85%
pest or weed control at 31 g/ha (large (Lg) crabgrass; Postemergence, 31 g ai/ha, scale 0 to 100 (0 no effect, 100 complete control), 13 to 15 days, read-out: Plant response rating, Crabgrass, Large): 5%
pest or weed control at 62 g/ha (large (Lg) crabgrass; Postemergence, 62 g ai/ha, scale 0 to 100 (0 no effect, 100 complete control), read-out: Plant response rating, Crabgrass, Large): 20%
pest or weed control at 125 g/ha (ragweed; 125 g ai/ha, postemergence, read-out: Plant response rating (0 to 100), Ragweed): 85%
pest or weed control at 250 g/ha (ragweed; 250 g ai/ha, postemergence, read-out: Plant response rating (0 to 100), Ragweed): 90%
pest or weed control at 31 g/ha (ragweed; Postemergence, 31 g ai/ha, scale 0 to 100 (0 no effect, 100 complete control), 13 to 15 days, read-out: Plant response rating, Ragweed): 40%
pest or weed control at 62 g/ha (ragweed; Postemergence, 62 g ai/ha, scale 0 to 100 (0 no effect, 100 complete control), read-out: Plant response rating, Ragweed): 45%
pest or weed control at 62 g/ha (morningglory [3]; 62 g ai/ha, preemergence, scale 0 (no effect) to 100 (complete control), read-out: Morningglory plant response rating): 100%
pest or weed control at 125 g/ha (morningglory [3]; 125 g ai/ha, preemergence, scale 0 (no effect) to 100 (complete control), read-out: Morningglory plant response rating): 100%
pest or weed control at 250 g/ha (morningglory [3]; 250 g ai/ha, preemergence, scale 0 (no effect) to 100 (complete control), read-out: Morningglory plant response rating): 100%
pest or weed control at 31 g/ha (morningglory [3]; Preemergence, 31 g ai/ha, scale 0 to 100, 0 no effect, 100 complete control, read-out: Plant response rating, Morningglory): 100%
pest or weed control at 62 g/ha (barnyardgrass [4]; 62 g ai/ha, preemergence, scale 0 (no effect) to 100 (complete control), read-out: Barnyardgrass plant response rating): 100%
pest or weed control at 125 g/ha (barnyardgrass [4]; 125 g ai/ha, preemergence, scale 0 (no effect) to 100 (complete control), read-out: Barnyardgrass plant response rating): 100%
pest or weed control at 250 g/ha (barnyardgrass [4]; 250 g ai/ha, preemergence, scale 0 (no effect) to 100 (complete control), read-out: Barnyardgrass plant response rating): 100%
pest or weed control at 31 g/ha (barnyardgrass [4]; Preemergence, 31 g ai/ha, scale 0 to 100, 0 no effect, 100 complete control, read-out: Plant response rating, Barnyardgrass): 98%
pest or weed control at 62 g/ha (waterhemp; 62 g ai/ha, preemergence, scale 0 (no effect) to 100 (complete control), read-out: Waterhemp plant response rating): 100%
pest or weed control at 125 g/ha (waterhemp; 125 g ai/ha, preemergence, scale 0 (no effect) to 100 (complete control), read-out: Waterhemp plant response rating): 100%
pest or weed control at 250 g/ha (waterhemp; 250 g ai/ha, preemergence, scale 0 (no effect) to 100 (complete control), read-out: Waterhemp plant response rating): 100%
pest or weed control at 31 g/ha (waterhemp; Preemergence, 31 g ai/ha, scale 0 to 100, 0 no effect, 100 complete control, read-out: Plant response rating, Waterhemp): 100%
pest or weed control at 125 g/ha (pigweed [5]; [8]): 100%
pest or weed control at 500 g/ha (pigweed [5]; 240 h, 500 g ai/ha, 0 to 100 scale, 0 no effect, 100 complete control, approx. 10 days, read-out: Pigweed plant response rating): 100%
pest or weed control at 125 g/ha (barnyardgrass [6]; 125 g ai/ha, 0 to 100 scale where 0 is no effect and 100 is complete control, read-out: Plant response rating, Barnyardgrass): 100%
pest or weed control at 500 g/ha (barnyardgrass [6]; 500 g ai/ha, 0 to 100 scale, 0 no effect, 100 complete control, read-out: Plant response rating Barnyardgrass): 100%
pest or weed control at 125 g/ha (velvetleaf; 125 g ai/ha, 0 to 100 scale where 0 is no effect and 100 is complete control, read-out: Plant response rating, Velvetleaf): 100%
pest or weed control at 500 g/ha (velvetleaf; 500 g ai/ha, 0 to 100 scale, 0 no effect, 100 complete control, read-out: Plant response rating Velvetleaf): 100%
plant injury at 250 g/ha (rice): 50%
pest or weed control at 125 g/ha (blackgrass; 125 g ai/ha, postemergence, read-out: Plant response rating (0 to 100), Blackgrass): 30%
pest or weed control at 250 g/ha (blackgrass; 250 g ai/ha, postemergence, read-out: Plant response rating (0 to 100), Blackgrass): 55%
pest or weed control at 31 g/ha (blackgrass; Postemergence, 31 g ai/ha, scale 0 to 100 (0 no effect, 100 complete control), 13 to 15 days, read-out: Plant response rating, Blackgrass): 10%
pest or weed control at 62 g/ha (blackgrass; Postemergence, 62 g ai/ha, scale 0 to 100 (0 no effect, 100 complete control), read-out: Plant response rating, Blackgrass): 15%
plant injury at 62 g/ha (soybean; 62 g ai/ha, preemergence, scale 0 (no effect) to 100 (complete control), read-out: Soybean plant response rating): 95%
plant injury at 125 g/ha (soybean; 125 g ai/ha, preemergence, scale 0 (no effect) to 100 (complete control), read-out: Soybean plant response rating): 98%
plant injury at 250 g/ha (soybean; 250 g ai/ha, preemergence, scale 0 (no effect) to 100 (complete control), read-out: Soybean plant response rating): 98%
plant injury at 31 g/ha (soybean; Preemergence, 31 g ai/ha, scale 0 to 100, 0 no effect, 100 complete control, read-out: Plant response rating, Soybean): 90%
Plant response rating, Morningglory (morningglory [7]; 125 g ai/ha, 0 to 100 scale where 0 is no effect and 100 is complete control): 100
pest or weed control at 500 g/ha (morningglory [7]; Ipomoea, pre-emergence, 240 h, 500 g ai/ha, 0 to 100 scale, 0 no effect, 100 complete control, approx. 10 days, read-out: Morningglory plant response rating): 100%
